In US11541129B2, “Nanoreservoir coated medical devices, biomaterials, and bioprosthetics” (Université de Liège, priority 2016, dated 2023):
Converted amounts (≈) assume the structure as drawn.

Test system: platelets
Assay: ADP-induced platelet aggregation in PRP (light transmission aggregometry)
Type: cell-based
Conditions: Homo sapiens, 10 μM ADP, 37° C., read-out: IC50 concentration of free ticagrelor, ADP-induced platelet aggregation
Method: (A) PRP was pre-incubated for 10 min with a solution of nanoreservoir containing increasing concentrations of ticagrelor or with free ticagrelor, as indicated. Platelet aggregation was induced by adding 10 μM ADP at 37° C. under stirring conditions (1200 rpm). Percentages of maximum aggregation recorded by light transmission aggregometry are shown. Data represent means±SD (*p<0.05, **p<0.01, ***p<0.001). (B) Maximum platelet aggregation obtained in the presence of different ratios of ticagrelor-loaded nanogels and minocycline-loaded nanogels. NG: nanogel bearing PEG 1500; NGT: ticagrelor-loaded nanogel bearing PEG 1500; NGM: minocycline-loaded nanogel bearing PEG 1500. Data represent means±SD.
Platelet-rich-plasma (PRP) was prepared by centrifugation of citrate anticoagulated human blood at 100×g for 15 min at room temperature. Platelet aggregation experiments were performed on PRP aliquots under stirring (1200 rpm) at 37° C. using light aggregometry (Chrono-Log Model 700 aggregometer, Kordia).
For this purpose, 1 ml of nanogel suspensions loaded with increasing concentrations of ticagrelor was centrifuged at 12000 g for 15 minutes, washed 2 times in PBS and resuspended in 300 μL of PBS. 260 μL of platelet-rich-plasma (PRP) was incubated with 10 μL of purified nanogel suspensions for 10 min. Platelet aggregation was then induced by adding 10 μM ADP at 37° C. under stirring conditions. […]

CCCSc1nc(N[C@@H]2C[C@H]2c2ccc(F)c(F)c2)c2nnn([C@@H]3C[C@H](OCCO)[C@@H](O)[C@H]3O)c2n1 [ticagrelor]
IC50: 1.8 µg/mL (≈ 3.44 µM)
